Results on two compounds are retold here after patent US8071838B2, “Targeted and regional cellular ablation in zebrafish” (Washington University in St. Louis, priority 2003, dated 2011).

Structures are written as SMILES.

Data set [1] has as its system unc-CFP-Nitro expressing cells. Briefly: nitroreductase-based pro-drug conversion and cellular ablation in transient transgenic zebrafish embryos. The note with it: metronidazole 10 mM, 5 mM, 2.5 mM in embryo medium; treated from 62 hpf, imaged at 118 hpf; untreated embryos keep both reporters. It is filed as in vivo. On the procedure: In order to determine the efficacy of nitroreductase-based pro-drug conversion and subsequent cellular ablation in transient transgenic zebrafish the following experiment was performed: Male and female zebrafish from a ‘transparent’ strain (e.g., harboring the roy mutation) were allowed to mate over egg collection chambers at light onset. Fertilized eggs were collected every 15 minutes and placed in petri dishes containing embryo medium (0.3X Danieau's solution containing 100 units/ml penicillin and 100 μg/ml streptomycin). Eggs were dispensed into a silicone chambers and oriented such that the cell side was facing up. For injections, DNA plasmids were diluted into 1X Danieau's solution to a final concentration of 10 ng/μl. DNA plasmids used for this experiment included: 1) An alpha-1-tubulin promoter driving expression of a Gal4/VP 16 “driver” protein (α-1-tub::Gal4/VP16); 2) A UAS regulated red control fluorescent reporter protein (UAS::DsRed) and; 3) A UAS regulated cyan fluorescent reporter protein (unc-CFP) fused to nitroreductase (UAS::unc-CFP-Nitro, see FIG. 2 and FIG. 3). […] At 28 hpf, injected embryos were screened for equivalent expression of the DsRed reporter (control cells) and the unc-CFP-Nitro ablation/reporter (targeted cells) using standard fluorescence microscopy. […]

Another data set deals with zebrafish. The following applies: in vivo; cited from earlier work.
Another data set addresses nitroreductase (Escherichia coli, UniProt P38489). The following applies: substrate for nitroreductase; due to permeability of the cytotoxic metabolite (Bridgewater et al., 1997; Wilson et al., 2002); cited from earlier work.

Sequence of nitroreductase (P38489 whole entry): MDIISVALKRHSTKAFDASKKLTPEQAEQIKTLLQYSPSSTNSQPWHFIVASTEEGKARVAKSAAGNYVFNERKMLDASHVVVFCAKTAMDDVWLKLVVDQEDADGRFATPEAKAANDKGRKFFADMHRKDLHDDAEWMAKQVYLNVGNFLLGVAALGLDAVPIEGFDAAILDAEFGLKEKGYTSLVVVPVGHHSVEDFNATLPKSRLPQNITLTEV

As for `Cc1ncc([N+](=O)[O-])n1CCO` [metronidazole], the “ablation of reporter-expressing cells (confocal imaging of unc-CFP-Nitro vs DsRed control reporter)” value in data set [1] is on record as “selective elimination of unc-CFP-Nitro expressing cells”. In addition, the general toxicity result in the data set on zebrafish is given as “no general toxicity”. `NC(=O)c1cc(N2CC2)c([N+](=O)[O-])cc1[N+](=O)[O-]` [CE 1954, 5-(aziridin-1-yl)-2,4-dinitrobenzamide]: the bystander effect entry at nitroreductase is listed as “specifically promote the bystander effect”.
